Where two headings read alike, the source gives them in different places.
Assays:
[1] = test system: hair-follicle organ culture; conditions: British Journal of Dermatology, 133, 5, 686–693, 1995; cited from earlier work
protein kinase A (PKA) [2] = conditions: Excerpt from BIO/TECHNOLOGY, 8, 732, 1990; cited from earlier work
protein kinase C (PKC) [3] = conditions: Excerpt from BIO/TECHNOLOGY, 8, 732, 1990, cited from earlier work
[4] = test system: Mouse hair-follicle cells; assay: Hair growth promoting effect in mouse hair-follicle cell culture (Neutral Red); format: cell-based; conditions: for Relative Degree of Cell Growth, vehicled on the degree of cell growth of 100 in Control: 5 days
Description: Mouse hair-follicle cells were cultivated and collected, according to the modified method of the Tanigai et al's method (see Archives of Dermatological Research, 284, 290–296, 1992) while suitably modifying the method.
That is, the skin was peeled from the back of a 4-day age C3H mouse (bought from Nippon Charles River Co.), and processed with an MEM (Minimum Essential Medium, Eagle) containing 500 units/ml Disperse (produced by Godo Shusei Co.) and 5% FCS, at 4° C. for 16 hours.
The epidermis was removed from said skin sample, and the resulting dermis layer was processed with a DMEM (Dulbecco's Modified Eagle Medium) containing 0.25% collagenase N-2 (produced by Nitta Gelatin Co.) and 10% FCS, at 37° C. for 1 hours, to prepare a dermis suspension.
This dermis suspension was filtrated through a 212-micron nylon mesh (produced by Nippon Rikagaku Kikai KK), and the resulting filtrate was centrifuged at 1,000 rpm for 5 minutes to obtain hair-follicle tissue-containing pellets.
The resulting pellets were suspended in a Ca-Mg-free PBS (Dulbecco's Phosphate-Buffered Saline), using a pipette, and then statically left as it was for 15 minutes, whereby the hair-follicle tissue was precipitated.
The thus-obtained hair-follicle tissue was repeatedly processed for a total of three times according to the same process as above comprising the addition of a Ca-Mg-free PBS, the suspension with a pipette, and the precipitation for 15 minutes.
The hair-follicle tissue thus obtained finally was processed with 0.1% EDTA-0.25% trypsin (produced by Gibco Co.) at 37° C. for 5 minutes, to which was then added a DMEM containing 10% FCS. Thus was prepared herein a hair-follicle tissue cell suspension comprising 3×10^5 cells/ml.
This hair-follicle tissue cell suspension was pipetted into a 24-well collagen-coated plate (produced by Iwaki Glass Co.) in an amount of 1 ml/well, and cultivated at 37° C. in 5% CO2 for 24 hours.
The resulting culture was then subjected to medium exchange with an MCDB153 medium (produced by Kyokuto Pharmaceutical Co.) containing 5 mg/liter insulin from bovine (produced by Sigma Co.), 5 μg/liter mouse EGF (produced by Takara Shuzo Co.), 40 mg/liter bovine pituitary extract (produced by Kyokuto Pharmaceutical Co.), 10 mg/liter human transferrin (produced by Sigma Co.), 0.4 mg/liter hydrocortisone (produced by Sigma Co.), 0.63 μg/liter progesterone (produced by Collaborative Research Co.), 14 mg/liter O-phosphoethanolamine (produced by Sigma Co.), 6.1 mg/liter ethanolamine (produced by Sigma Co.), 50 U/ml penicillin (produced by Wako Co.), 50 μg/ml streptomycin (produced by Wako Co.), and an DMSO solution comprising a PKC inhibitor of the invention (this was added in an amount of 1/100 by volume relative to the medium), and then further cultivated at 37° C. in 5% CO2 for 5 days. During the incubation, the medium was exchanged with a fresh one every other day.
As the control, the cell culture was cultivated in the same manner as above, except that only DMSO of 1/100 by volume relative to the medium was added to the medium in place of the PKC inhibitor-containing DMSO solution.
To determine the degree of cell growth, referred to herein was a known method of using Neutral Red (see Journal of Tissue Culture Method, 9, 1, 7–9, 1984). […]
The absorbance of the extract at 540 nm was measured, from which was obtained the degree of growth of the cells.

protein kinase C (PKC) [5] = molecular target: T1, protein kinase C (PKC); assay: PKC-inhibiting activity measuring method (Kikkawa et al.); format: biochemical, rat; conditions: crude enzyme partially purified from rat brain
T1 construct: PKC-IC50; other: crude enzyme partially purified from rat brain
Description: (§1) (1) Method for Measuring PKC-inhibiting Activity
(§2) Precisely, 10 μl of a sample to be tested for determining its activity is added to 250 μl of a solution comprising 2.5 μmols of magnesium acetate, 50 μg of histone Type IIIS (produced by Sigma Co.), 20 μg of phosphatidylserine, 0.8 μg of diolein, 25 μmols of calcium chloride, 5 μg of a crude enzyme (as partially purified from a rat brain according to the Kikkawa et al's method) and 5 μmols of Tris-HCl buffer (pH 7.5), and incubated therein at 30° C. for 3 minutes.

protein kinase C (PKC) [6] = assay: as above; format: biochemical, rat; conditions: ratio, selectivity PKC over PKA
Description: as §1, §2

protein kinase A (PKA) [7] = molecular target: protein kinase A (PKA) (Bos taurus, UniProt P00517); assay: PKA-inhibiting activity measuring method (Kuo et al.); format: biochemical; conditions: crude enzyme partially purified from calf heart
Description: (2) Method for Measuring PKA-inhibiting Activity
To measure the PKA-inhibiting activity of a protein kinase inhibitor, referred to is the Kuo et al's method (see Biochemistry, 64, 1349, 1969).
Precisely, 10 μl of a sample to be tested for determining its activity is added to 250 μl of a solution comprising 5 μmols of Tris-HCl buffer (pH 6.8), 2.5 μmols of magnesium acetate, 100 μg of histone Type IIS (produced by Sigma Co.), 0.25 nmols of c-AMP and 200 μg of a crude enzyme (as partially purified from a calf heart according to the Kuo et al's method), and incubated therein at 30° C. for 3 minutes.
After the completion of the incubation, 1.25 nmols of [g-^32P]ATP (from 5×10^3 to 10×10^3 cpm/nmol) is added to the system, and phosphorylation reaction is carried out at 30° C. for 3 minutes, and thereafter the reaction is terminated by adding 25% trichloroacetic acid thereto.
The resulting reaction mixture is filtrated through a cellulose acetate membrane (pore size: 0.45 μm) (produced by Toyo Filter Co.), and the membrane is washed four times with 5% trichloroacetic acid, and thereafter the radioactivity of the residue remained on the membrane is measured to be a value of the sample.
On the other hand, the same process as described above is repeated without adding the sample to the system, and the radioactivity is obtained to be a control value.

Molecule	IC50 (protein kinase A (PKA) [2]) [µM]	effect on growth of mouse hair-follicle cells (in words) [4]	Relative Degree of Cell Growth, vehicled on the degree of cell growth of 100 in Control ([4]; Concentration 10 μM)	IC50 (protein kinase C (PKC) [5]) [µM]	PKA-IC50/PKC-IC50 (protein kinase C (PKC) [6])	IC50 (protein kinase A (PKA) [7]) [µM]	further results
CC1CNCCN1S(=O)(=O)c1cccc2cnccc12 (stereo not shown) [Composition H-7, 1-(5-Isoquinolinylsulfonyl)-2-methylpiperazine]	13	–	–	–	–	–	effect on hair growth retardation by 12-O-tetragalloyl-phorbol-13-acetate (in words) [1]: release the hair growth-retarding activity; IC50 (protein kinase C (PKC) [3]): 15 µM; PKA-IC50/PKC-IC50 (protein kinase C (PKC) [3]; ratio): 0.87
COC(=O)[C@@]1(O)C[C@H]2O[C@]1(C)n1c3ccccc3c3c4c(c5c6ccccc6n2c5c31)C(=O)NC4 [Composition K252a]	0.02	inhibited the growth of mouse hair-follicle cells	–	–	–	–	–
polymyxin B sulfate	–	–	360	10	>10	> 100	–
calphostin C	–	–	–	0.05	>1000	> 50	Relative Degree of Cell Growth, vehicled on the degree of cell growth of 100 in Control ([4]; Concentration 0.1 μM): 160
CCCCCCCCCCCCCCCC(=O)OC(CC(=O)O)C[N+](C)(C)C.[Cl-] (racemic) [Palmitoyl-DL-carnitine Hydrochloride, palmitoyl-DL-carnitine hydrochloride]	–	–	170	100	>3	> 300	–
CN[C@@H]1C[C@H]2O[C@@](C)([C@@H]1OC)n1c3ccccc3c3c4c(c5c6ccccc6n2c5c31)C(=O)NC4 [Staurosporine]	–	inhibited the growth of mouse hair-follicle cells	–	–	–	–	–
